Laboratory results taken from patent US10618918B2, “Substituted boronic acids as antimicrobials” (priority 2015, dated 2020).

Assays:
[1] = molecular target: T1, purified class A, C and D enzymes (β-lactamases) (Pseudomonas aeruginosa, UniProt P24735); experiment: biochemical; format: biochemical
T1 construct: rows headed: Ki (Pa-AmpC, NCF), uM; other: purified Pa-AmpC; nitrocefin (NCF) as reporter substrate

[2] = molecular target: purified class A, C and D enzymes (β-lactamases) (Klebsiella pneumoniae, UniProt Q9F663); experiment: biochemical; format: biochemical; conditions: purified KPC-2; nitrocefin (NCF) as reporter substrate
[3] = molecular target: purified class A, C and D enzymes (β-lactamases) (Enterobacter cloacae, UniProt P05364); experiment: biochemical; format: biochemical
Sequence of purified class A, C and D enzymes (β-lactamases) (Enterobacter cloacae, UniProt P05364) (P05364 21-381): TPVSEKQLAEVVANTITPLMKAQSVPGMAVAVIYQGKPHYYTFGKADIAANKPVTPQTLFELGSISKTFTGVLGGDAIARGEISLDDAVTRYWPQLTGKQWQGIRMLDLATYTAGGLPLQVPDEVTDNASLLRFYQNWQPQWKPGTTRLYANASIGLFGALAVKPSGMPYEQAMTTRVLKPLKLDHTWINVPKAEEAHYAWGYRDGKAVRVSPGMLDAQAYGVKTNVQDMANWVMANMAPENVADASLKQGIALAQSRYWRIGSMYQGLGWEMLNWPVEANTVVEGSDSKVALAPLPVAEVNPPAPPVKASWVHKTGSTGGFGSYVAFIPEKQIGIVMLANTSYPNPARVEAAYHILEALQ

[4] = molecular target: purified class A, C and D enzymes (β-lactamases) (Klebsiella pneumoniae, UniProt Q6XEC0); experiment: biochemical; format: biochemical; conditions: purified OXA-48; nitrocefin (NCF) as reporter substrate
[5] = molecular target: purified class A, C and D enzymes (β-lactamases) (Escherichia coli, UniProt Q9L5C7); experiment: biochemical; format: biochemical; conditions: purified CTX-M-14; nitrocefin (NCF) as reporter substrate
Sequence of purified class A, C and D enzymes (β-lactamases) (Escherichia coli, UniProt Q9L5C7) (Q9L5C7 entry or part of it): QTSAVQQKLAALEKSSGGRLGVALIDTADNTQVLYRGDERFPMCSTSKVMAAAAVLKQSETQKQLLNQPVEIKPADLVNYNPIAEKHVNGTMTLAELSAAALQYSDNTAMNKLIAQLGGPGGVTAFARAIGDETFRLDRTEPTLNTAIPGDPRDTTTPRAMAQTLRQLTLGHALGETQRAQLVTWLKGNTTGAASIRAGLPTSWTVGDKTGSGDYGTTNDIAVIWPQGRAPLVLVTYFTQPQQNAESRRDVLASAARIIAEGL

[6] = molecular target: T2, purified class A, C and D enzymes (β-lactamases) (UniProt P0AD64, L31Q/G234S/E235K, species not given); experiment: biochemical; format: biochemical; conditions: read-out: Ki (SHV-12, NCF); purified SHV-12; nitrocefin (NCF) as reporter substrate
T2 construct: Ki (SHV-12, NCF), uM; other: purified SHV-12; nitrocefin (NCF) as reporter substrate
T2 sequence (P0AD64 1-286 L31Q/G234S/E235K): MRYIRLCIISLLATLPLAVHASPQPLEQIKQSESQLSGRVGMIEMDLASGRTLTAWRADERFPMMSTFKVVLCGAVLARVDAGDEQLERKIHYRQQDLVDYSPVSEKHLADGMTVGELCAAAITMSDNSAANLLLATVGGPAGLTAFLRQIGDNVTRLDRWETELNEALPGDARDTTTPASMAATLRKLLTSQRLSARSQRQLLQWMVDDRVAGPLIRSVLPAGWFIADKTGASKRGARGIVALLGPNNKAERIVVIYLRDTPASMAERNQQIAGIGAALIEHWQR

[7] = molecular target: T3, purified class A, C and D enzymes (β-lactamases) (Acinetobacter baumannii, UniProt Q9L4P2); experiment: biochemical; format: biochemical; conditions: purified OXA-23; nitrocefin (NCF) as reporter substrate
T3 construct: rows headed: Ki (OXA-23, NCF), uM; other: purified OXA-23; nitrocefin (NCF) as reporter substrate
T3 sequence (Q9L4P2 whole entry): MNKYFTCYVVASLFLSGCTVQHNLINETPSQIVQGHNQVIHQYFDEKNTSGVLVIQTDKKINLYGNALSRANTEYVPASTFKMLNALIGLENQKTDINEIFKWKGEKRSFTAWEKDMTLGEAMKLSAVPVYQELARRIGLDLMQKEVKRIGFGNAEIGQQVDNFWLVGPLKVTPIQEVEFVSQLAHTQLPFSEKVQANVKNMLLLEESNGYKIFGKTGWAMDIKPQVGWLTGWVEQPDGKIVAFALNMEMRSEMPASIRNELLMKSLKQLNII

ECL1002 = experiment: Aztreonam potentiation (MPC@4), strain ECL1002; conditions: minimum BLI concentration inhibiting growth with aztreonam 4 μg/mL; tested up to 40 μg/mL
AB1054 OXA-23 = experiment: Meropenem potentiation (MPC@8), strain AB1054 OXA-23; format: cell-based, Acinetobacter baumannii; conditions: minimum BLI concentration inhibiting growth with meropenem 8 μg/mL; tested up to 20 μg/mL
ec308 SHV-5 = experiment: Aztreonam potentiation (MPC@4), strain ec308 SHV-5; conditions: minimum BLI concentration inhibiting growth with aztreonam 4 μg/mL; tested up to 40 μg/mL
KP1010 SHV-12 = experiment: Aztreonam potentiation (MPC@4), strain KP1010 SHV-12; conditions: minimum BLI concentration inhibiting growth with aztreonam 4 μg/mL; tested up to 40 μg/mL
KP1005 CTX-M-14 = experiment: Tigemonam potentiation (MPC@4), strain KP1005 CTX-M-14; conditions: minimum BLI concentration inhibiting growth with tigemonam 4 μg/mL; tested up to 40 μg/mL
ec302 TEM-10 = experiment: Aztreonam potentiation (MPC@4), strain ec302 TEM-10; conditions: minimum BLI concentration inhibiting growth with aztreonam 4 μg/mL; tested up to 40 μg/mL
AB1053 OXA-72 = experiment: Meropenem potentiation (MPC@8), strain AB1053 OXA-72; format: cell-based, Acinetobacter baumannii; conditions: minimum BLI concentration inhibiting growth with meropenem 8 μg/mL; tested up to 20 μg/mL
KP1004 KPC-2 [8] = experiment: Aztreonam potentiation (MPC@4), strain KP1004 KPC-2; conditions: minimum BLI concentration inhibiting growth with aztreonam 4 μg/mL; tested up to 40 μg/mL
KP1009 CTX-M-15 = experiment: Aztreonam potentiation (MPC@4), strain KP1009 CTX-M-15; conditions: minimum BLI concentration inhibiting growth with aztreonam 4 μg/mL; tested up to 40 μg/mL
KP1004 KPC-2 [9] = experiment: Biapenem potentiation (MPC@1), strain KP1004 KPC-2; format: cell-based; conditions: minimum BLI concentration inhibiting growth with biapenem 1 μg/mL; tested up to 40 μg/mL
Procedure: (§1) Biapenem was present in the test medium at 1 μg/mL. […] Table 3 summarizes the BLI potency of biapenem potentiation (MPC@1) for two strains overexpressing class A (KPC) and class D (OXA-48) carbapenemases. Biapenem MIC for each strain is also shown.

EC1010 CMY-6 = experiment: Aztreonam potentiation (MPC@4), strain EC1010 CMY-6; conditions: minimum BLI concentration inhibiting growth with aztreonam 4 μg/mL; tested up to 40 μg/mL
KP1086 OXA-48 = experiment: Biapenem potentiation (MPC@1), strain KP1086 OXA-48; format: cell-based; conditions: minimum BLI concentration inhibiting growth with biapenem 1 μg/mL; tested up to 40 μg/mL
Procedure: as §1

T1 sequence (P24735 whole entry): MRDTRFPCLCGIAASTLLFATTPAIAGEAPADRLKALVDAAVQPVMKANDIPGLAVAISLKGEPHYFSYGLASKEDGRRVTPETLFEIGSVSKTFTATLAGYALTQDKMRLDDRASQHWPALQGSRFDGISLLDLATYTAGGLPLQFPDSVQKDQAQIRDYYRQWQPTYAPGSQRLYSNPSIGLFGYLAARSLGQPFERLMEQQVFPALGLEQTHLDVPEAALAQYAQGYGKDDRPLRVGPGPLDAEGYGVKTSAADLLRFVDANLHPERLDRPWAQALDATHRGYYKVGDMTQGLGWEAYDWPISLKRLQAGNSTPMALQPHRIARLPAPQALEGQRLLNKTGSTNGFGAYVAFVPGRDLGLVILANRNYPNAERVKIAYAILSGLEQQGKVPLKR

| Structure (SMILES) | Ki [1] [µM] | Ki (KPC-2, NCF), uM [2] | Ki (P99, NCF), uM [3] | Ki (OXA-48, NCF), uM [4] | Ki (CTX-M-14, NCF), uM [5] | Ki [6] [µM] | Ki [7] [µM] | AZT MPC4 ECL1002 (ECL1002) | MPM MPC8 AB1054 OXA-23 (AB1054 OXA-23) | AZT MPC4 SHV-5 ec308 (ec308 SHV-5) | AZT MPC4 SHV-12 KP1010 (KP1010 SHV-12) | TIG MPC4 CTX-M-14 KP1005 (KP1005 CTX-M-14) | AZT MPC4 TEM-10 ec302 (ec302 TEM-10) | MPM MPC8 AB1053 OXA-72 (AB1053 OXA-72) | AZT MPC4 KPC-2 KP1004 (KP1004 KPC-2 [8]) | AZT MPC4 CTX-M-15 KP1009 (KP1009 CTX-M-15) | BPM MPC1 KP1004 KPC-2 (KP1004 KPC-2 [9]) | AZT MPC4 CMY-6 EC1010 (EC1010 CMY-6) | BPM MPC1 OXA-48 KP1086 (KP1086 OXA-48) |
| --- | --- | --- | --- | --- | --- | --- | --- | --- | --- | --- | --- | --- | --- | --- | --- | --- | --- | --- | --- |
| O=C([O-])c1c(OC(F)F)ccc2c1O[B-](O)(O)CC2.[Na+].[Na+] [Compound 56, Disodium; 8-(difluoromethoxy)-4,4-dihydroxy-5-oxa-4-boranuidabicyclo[4.4.0]deca-1(6),7,9-triene-7-carboxylate] | < 0.1 | X (X = Ki ≤ 0.1 μM) | X (key: X = Ki ≤ 0.1 μM; Y = 0.1 μM < Ki ≤ 1 μM; Z = Ki > 1 μM) | X (X = Ki ≤ 0.1 μM) | X (X = Ki ≤ 0.1 μM) | < 0.1 | < 0.1 | X (X = MPC@4 ≤ 5 μg/mL) | X (X = MPC@1 ≤ 5 μg/mL) | X (X = MPC@4 ≤ 5 μg/mL) | X (X = MPC@4 ≤ 5 μg/mL) | X (X = MPC@4 ≤ 5 μg/mL) | X (X = MPC@4 ≤ 5 μg/mL) | X (X = MPC@1 ≤ 5 μg/mL) | X (X = MPC@4 ≤ 5 μg/mL) | X (X = MPC@4 ≤ 5 μg/mL) | X (X = MPC@1 ≤ 5 μg/mL) | X (X = MPC@4 ≤ 5 μg/mL) | X (X = MPC@1 ≤ 5 μg/mL) |
| NCCn1cc(-c2ccc3c(c2C(=O)O)O[B-](O)(O)CC3)nn1 [Compound 17, Disodium; 8-[1-(2-aminoethyl)triazol-4-yl]-4,4-dihydroxy-5-oxa-4-boranuidabicyclo[4.4.0]deca-1(6),7,9-triene-7-carboxylate] | 0.1 to 1 | X (X = Ki ≤ 0.1 μM) | Y (key: X = Ki ≤ 0.1 μM; Y = 0.1 μM < Ki ≤ 1 μM; Z = Ki > 1 μM) | X (X = Ki ≤ 0.1 μM) | X (X = Ki ≤ 0.1 μM) | 0.1 to 1 | < 0.1 | Z (Z = MPC@4 > 20 μg/mL) | X (X = MPC@1 ≤ 5 μg/mL) | Z (Z = MPC@4 > 20 μg/mL) | Y (Y = 5 μg/mL < MPC@4 ≤ 20 μg/mL) | Z (Z = MPC@4 > 20 μg/mL) | Z (Z = MPC@4 > 20 μg/mL) | X (X = MPC@1 ≤ 5 μg/mL) | X (X = MPC@4 ≤ 5 μg/mL) | Z (Z = MPC@4 > 20 μg/mL) | X (X = MPC@1 ≤ 5 μg/mL) | Y (Y = 5 μg/mL < MPC@4 ≤ 20 μg/mL) | X (X = MPC@1 ≤ 5 μg/mL) |
